Results on six compounds are retold here after PMC11148045, “Structural basis for recognition of 26RFa by the pyroglutamylated RFamide peptide receptor” (Cell Discovery, 2024).

No end group written: not given here.

The test system of one test is QRFPR. The conditions noted are these: cited from earlier work. From the text: cDNA encoding the precursor or orthologue of 26RFa is detected in vertebrates, from fish[16], and phasianidae, to mammals. In humans, 26RFa and its N-terminal extended mature peptide 43RFa are extracted from the human brain, and mRNA of QRFPR is detected in the hypothalamus, vestibular nuclei, and other areas of the central nervous system. QRFPR is also detected in some peripheral organs[18],[19]. Both 26RFa and 43RFa are endogenous ligands for QRFPR (GPR103)[4],[18]. The amino acid sequences of 26RFa are conserved among mammalian species, with 26RFa from rats being slightly mor ... || Considerable efforts have been dedicated to elucidating the recognition mechanism of 26RFa by QRFPR. […] This segment served as a molecular scaffold for the development of low molecular weight peptides with enhanced potency and increased stability[21],[28]. […] Globally, the 26RFa segment (Gly20–Phe24) leans to TM2, but is far from TMs 5–7, leaving a large portion of unoccupied space lined by TMs 5–7 (Fig. 3a). Two glycines (Gly20, Gly21) are compactly packed into a crevice composed of residues on ECL1, ECL2, and the N-terminus (Fig. 3a). They moderately impact 26RFa activity, as substit ... || (+ 2 further places)

The target of the next test is T1, KISS1R (WT) (Homo sapiens, UniProt Q969F8).
T1 construct: expressed in transfected cells; host or cells: HEK293, transient transfection by electroporation
T1 sequence (Q969F8 whole entry, species assumed): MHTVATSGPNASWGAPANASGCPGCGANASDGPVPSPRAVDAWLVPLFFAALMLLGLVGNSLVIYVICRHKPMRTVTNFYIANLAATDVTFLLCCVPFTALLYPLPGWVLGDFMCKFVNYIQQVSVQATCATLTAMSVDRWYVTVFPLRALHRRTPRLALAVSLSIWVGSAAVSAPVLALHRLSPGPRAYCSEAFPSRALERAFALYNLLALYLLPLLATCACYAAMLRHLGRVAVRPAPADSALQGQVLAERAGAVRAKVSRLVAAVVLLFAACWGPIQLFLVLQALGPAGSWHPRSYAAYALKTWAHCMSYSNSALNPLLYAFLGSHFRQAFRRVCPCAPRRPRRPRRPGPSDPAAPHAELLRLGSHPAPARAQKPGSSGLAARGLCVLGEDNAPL
Kind of test: KP-10-induced calcium mobilization, wild-type receptor. The following applies: HEK293, Fluo-4, mean ± S.E.M., n ≥ 3. The class given is cell-based.

A further test addresses T2, KISS1R mutants (Homo sapiens, UniProt Q969F8, E193A/H309A/Q122A).
T2 construct: expressed in transfected cells; host or cells: HEK293, transient transfection by electroporation
The test can be described thus: KP-10-induced calcium mobilization, receptor mutants. In kind it is cell-based. The conditions noted are these: HEK293, Fluo-4, mean ± S.E.M., n ≥ 3. Background: A change in cytosolic calcium serves as a functional read-out for many receptors and channels.

The subject of a further test is NPY1R and NPY4R. The following applies: cited from earlier work; for role of hydrogen bond of Tyr36 with Q^5.46 in activity: NPY1R and NPY4R. From the text:
Specifically, Arg25 and Arg35 in 26RFa and NPY/PP are exposed to a conserved polar environment that includes residues E^45.52, T^5.39, and D/E^6.59 in QRFPR and NPYRs. However, subtle differences exist in the special binding interactions between these arginines and conserved polar residues (Fig. 4d–f). Side chains of Arg35 in NPY/PP form a conserved salt bridge with D^6.59 and a hydrogen bond with T^5.39 (NPY1R and NPY4R) or a salt bridge with E^45.52 (NPY2R) (Fig. 4e, f). In 26RFa, Arg25 retains its salt bridge with E203^45.52 but fails to build a salt bridge with E297^6.59 (Fig. 3b). It is p ... || Phe26 in 26RFa and Tyr36 in NPY/PP show distinct binding characteristics for QRFRP and NPYRs, respectively. […] (Fig. 4e). However, in NPY2R, this hydrogen bond is absent due to the substitution of glutamine with leucine at position 5.46, which lacks a hydrogen bond donor (Fig. 4c, f). Similarly, QRFPR also has a leucine at position 5.46, which cannot form a corresponding hydrogen bond with Phe26 in 26RFa. Furthermore, in contrast to the notable impact of Q^5.46 on the NP ...

A further test deals with T3, PrRPR (WT) (Homo sapiens, UniProt P49683).
T3 construct: expressed in transfected cells; host or cells: HEK293, transient transfection by electroporation
T3 sequence (P49683 whole entry, species assumed): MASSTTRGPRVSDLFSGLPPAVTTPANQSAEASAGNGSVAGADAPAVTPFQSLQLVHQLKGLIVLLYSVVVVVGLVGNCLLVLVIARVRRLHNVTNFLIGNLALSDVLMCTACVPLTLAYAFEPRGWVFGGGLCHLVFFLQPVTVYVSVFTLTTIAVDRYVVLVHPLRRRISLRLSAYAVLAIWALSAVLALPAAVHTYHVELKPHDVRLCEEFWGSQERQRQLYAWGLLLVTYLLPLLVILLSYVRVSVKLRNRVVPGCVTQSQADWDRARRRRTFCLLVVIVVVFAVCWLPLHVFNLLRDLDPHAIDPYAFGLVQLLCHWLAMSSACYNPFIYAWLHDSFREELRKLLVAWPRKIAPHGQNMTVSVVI
The test can be described thus: PrRP-20-induced calcium mobilization, wild-type receptor. The class given is cell-based. The conditions noted are these: HEK293, Fluo-4, mean ± S.E.M., n ≥ 3. Here is the method:
(§1) The gene encoding the WT QRFPR, PrPRR, KISS1R, NPFF1R, or NPFF2R was subcloned into the pcDNA3.0 vector with the addition of an N-terminal HA tag. All of the mutations used for functional studies were generated by QuickChange PCR and verified by DNA sequencing.
(§2) HEK293 cells were obtained from ATCC (Manassas, VA, USA) and cultured in DMEM supplemented with 10% (v/v) FBS, 100 mg/L penicillin, and 100 mg/L streptomycin in 5% CO2 at 37 °C. For transient transfection, ~2.5 × 10^6 cells were mixed with 2 µg plasmids in 200 µL transfection buffer, and electroporation was carried out with a Scientz-2C electroporation apparatus (Scientz Biotech, Ningbo, China). The experiments were carried out 24 h after transfection.
For QRFPR, PrRPR, and KISS1R, HEK293 cells transfected with WT receptor or its mutants were seeded at a density of 4 × 10^4 per well into 96-well culture plates and incubated for 24 h at 37 °C in 5% CO2. […] After washing, cells were added with 50 μL HBSS and incubated at room temperature for 10 min, then 25 μL agonist buffer was dispensed into the well using a FlexStation III microplate reader (Molecular Devices), and intracellular calcium change was recorded at an excitation wavelength of 485 nm and an emission wavelength of 525 nm. EC50 and Emax values for each curve were calculated by Prism 8.0 software (GraphPad Software).

For another test, the target named is T4, PrRPR mutants (Homo sapiens, UniProt P49683, D302A/E213A/H321A/Q141A).
T4 construct: expressed in transfected cells; host or cells: HEK293, transient transfection by electroporation
T4 sequence (P49683 1-370 Q141A/E213A/D302A/H321A): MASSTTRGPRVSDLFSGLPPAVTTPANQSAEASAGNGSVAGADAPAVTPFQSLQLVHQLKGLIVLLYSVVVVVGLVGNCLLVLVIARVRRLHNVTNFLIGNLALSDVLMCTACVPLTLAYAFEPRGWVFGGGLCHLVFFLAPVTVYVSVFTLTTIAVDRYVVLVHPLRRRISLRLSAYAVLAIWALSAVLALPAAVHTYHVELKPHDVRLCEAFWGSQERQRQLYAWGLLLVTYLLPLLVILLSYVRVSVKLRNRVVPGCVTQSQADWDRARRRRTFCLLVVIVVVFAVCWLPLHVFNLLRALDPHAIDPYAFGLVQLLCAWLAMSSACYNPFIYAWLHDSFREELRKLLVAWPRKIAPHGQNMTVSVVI
The test can be described thus: PrRP-20-induced calcium mobilization, receptor mutants. In kind it is cell-based. The conditions noted are these: HEK293, Fluo-4, mean ± S.E.M., n ≥ 3. On the procedure: as §1, §2
For QRFPR, PrRPR, and KISS1R, HEK293 cells transfected with WT receptor or its mutants were seeded at a density of 4 × 10^4 per well into 96-well culture plates and incubated for 24 h at 37 °C in 5% CO2. For NPFF1R and NPFF2R, plasmids were transfected into HEK293 cells stably expressing Gα16. On the next day, cells were incubated with 2 μmol/L Fluo-4 AM in HBSS supplemented with 5.6 mmol/L D-glucose and 250 μmol/L sulfinpyrazone at 37 °C for 45 min. After washing, cells were added with 50 μL HBSS and incubated at room temperature for 10 min, then 25 μL agonist buffer was dispensed into the well using a FlexStation III microplate reader (Molecular Devices), and intracellular calcium change was recorded at an excitation wavelength of 485 nm and an emission wavelength of 525 nm. EC50 and Emax values for each curve were calculated by Prism 8.0 software (GraphPad Software).

T2 sequence (Q969F8 whole entry Q122A/E193A/H309A): as the sequence (Q969F8 whole entry, species assumed) above, with Q122A, E193A, H309A counted along it

Consider “26RFa (1–18): N-terminal segment of native 26RFa lacking the C-terminal octapeptide (QDEGSEATGFLPAAGEKT; QRF-amide; UniProt P83859 91-108, looked up, fragment)”, for which, in the test on QRFPR (26RFa (1–18), lacks the C-terminal octapeptide), the “ability to activate the receptor” value was “loses its ability to activate the receptor”.
As to “26RFa from rats: 26RFa from rats; rat 26RFa (GenScript) used for the complex”, in the test on QRFPR (calcium mobilization), the “potency, rat vs human 26RFa” value is given as “slightly more potent than that from humans”.
Regarding `CC(C)C[C@H](NC(=O)CNC(=O)[C@H](Cc1ccccc1)NC(=O)[C@H](CO)NC(=O)[C@H](CC(N)=O)NC(=O)[C@H](Cc1c[nH]c2ccccc12)NC(=O)[C@H](CC(N)=O)NC(=O)[C@@H](N)Cc1ccc(O)cc1)C(=O)N[C@@H](CCCNC(=N)N)C(=O)N[C@@H](Cc1ccccc1)C(N)=O` [KP-10], the EC50 (as a rule, the concentration that produces a half-maximal response) on KISS1R (WT) was 4.27 nM; on KISS1R mutants (KISS1R E193^45.52A), 10 nM; on KISS1R mutants (KISS1R H309^7.39A) it was 17.4 nM; on KISS1R mutants (KISS1R Q122^3.32A), 5.13 nM. The Emax (usually the size of the effect at its maximum, as opposed to the concentration needed) on KISS1R (WT) was 100 ± 1.2%; at KISS1R mutants (HEK293, KISS1R E193^45.52A) it was 126 ± 6.2%; on KISS1R mutants (HEK293, KISS1R H309^7.39A) it was 89.6 ± 1%; on KISS1R mutants (HEK293, KISS1R Q122^3.32A), 12.8 ± 0.76%.
Take Neuropeptide Y [NPY]: in the test with NPY1R and NPY4R, the “role of hydrogen bond of Tyr36 with Q^5.46 in activity” value is “crucial for NPY/PP activity”; the “role of amide-surrounding residues (C^2.57, T^2.61, Q^3.32, Q/H^7.39) in activity” value was “critical for 26RFa and NPY/PP activities”.
On to “TPDINPAWYASRGIRPVGRF-NH2 [PrRP-20, prolactin-releasing peptide]”, for which the EC50 at PrRPR (WT) is 1.1 nM; on PrRPR mutants (PrRPR D302^6.59A) it was 11.2 nM; at PrRPR mutants (PrRPR E213^45.52A), 115 nM; on PrRPR mutants (PrRPR H321^7.39A) it was 14.8 nM; on PrRPR mutants (PrRPR Q141^3.32A), 1.05 nM. Also, the Emax on PrRPR (WT) stood at 100 ± 3.9%; at PrRPR mutants (HEK293, PrRPR D302^6.59A) it was 124 ± 8.9%; at PrRPR mutants (HEK293, PrRPR E213^45.52A) it was 27.7 ± 0.37%; on PrRPR mutants (HEK293, PrRPR H321^7.39A) it was 19.7 ± 0.75%; at PrRPR mutants (HEK293, PrRPR Q141^3.32A) it was 49.2 ± 1.2%.
For the compound pancreatic polypeptide [PP], in the test with NPY1R and NPY4R, the “role of hydrogen bond of Tyr36 with Q^5.46 in activity” value was “crucial for NPY/PP activity”; the “role of amide-surrounding residues (C^2.57, T^2.61, Q^3.32, Q/H^7.39) in activity” value was “critical for 26RFa and NPY/PP activities”.
